Patent US20260125346A1, “Isoquinolinone Derivatives and 4H-Quinolizinone Derivatives and Pharmaceutical Compositions Thereof for the Treatment of Disease” (BeOne Medicines I GmbH, priority 2023, published 2026)

Tests used:
[1] = molecular target: PI3Kα (p110[H1047R]/p85) kinase (Homo sapiens, UniProt P42336, H1047R); test: PI3Kα (p110[H1047R]/p85) kinase ADP-Glo Assay; type: biochemical; conditions: 25 uM ATP
In short: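 PI3Kα H1047R/p85 pre-incubated 30 min at room temperature with PI(4,5)P2:PS substrate ([…]) and compound ([…]) in HEPES pH 7.5 buffer with MgCl2; ATP ([…]) then added for 120 min. ADP quantified by ADP-Glo luminescence; IC50 from four-parameter logistic fit.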

[2] = system: PI3Kα H1047R mutated cell line T-47D cells; test: Cell Proliferation Assay (CellTiter-Glo), T-47D; type: cell-based; conditions: for IC50: Homo sapiens, T47D, 72 h, T-47D, 3 days treatment
In short: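 T-47D cells seeded overnight at 3×10^3/well, then exposed 3 days to 9-point 1:3 dilutions, final […] to 1 nM in 0.1% DMSO. CellTiter-Glo luminescence; relative IC50 from percent inhibition versus medium-only and 0.1% DMSO controls, 4-parameter logistic fit.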

Chain of PI3Kα (p110[H1047R]/p85) kinase (P42336 whole entry H1047R): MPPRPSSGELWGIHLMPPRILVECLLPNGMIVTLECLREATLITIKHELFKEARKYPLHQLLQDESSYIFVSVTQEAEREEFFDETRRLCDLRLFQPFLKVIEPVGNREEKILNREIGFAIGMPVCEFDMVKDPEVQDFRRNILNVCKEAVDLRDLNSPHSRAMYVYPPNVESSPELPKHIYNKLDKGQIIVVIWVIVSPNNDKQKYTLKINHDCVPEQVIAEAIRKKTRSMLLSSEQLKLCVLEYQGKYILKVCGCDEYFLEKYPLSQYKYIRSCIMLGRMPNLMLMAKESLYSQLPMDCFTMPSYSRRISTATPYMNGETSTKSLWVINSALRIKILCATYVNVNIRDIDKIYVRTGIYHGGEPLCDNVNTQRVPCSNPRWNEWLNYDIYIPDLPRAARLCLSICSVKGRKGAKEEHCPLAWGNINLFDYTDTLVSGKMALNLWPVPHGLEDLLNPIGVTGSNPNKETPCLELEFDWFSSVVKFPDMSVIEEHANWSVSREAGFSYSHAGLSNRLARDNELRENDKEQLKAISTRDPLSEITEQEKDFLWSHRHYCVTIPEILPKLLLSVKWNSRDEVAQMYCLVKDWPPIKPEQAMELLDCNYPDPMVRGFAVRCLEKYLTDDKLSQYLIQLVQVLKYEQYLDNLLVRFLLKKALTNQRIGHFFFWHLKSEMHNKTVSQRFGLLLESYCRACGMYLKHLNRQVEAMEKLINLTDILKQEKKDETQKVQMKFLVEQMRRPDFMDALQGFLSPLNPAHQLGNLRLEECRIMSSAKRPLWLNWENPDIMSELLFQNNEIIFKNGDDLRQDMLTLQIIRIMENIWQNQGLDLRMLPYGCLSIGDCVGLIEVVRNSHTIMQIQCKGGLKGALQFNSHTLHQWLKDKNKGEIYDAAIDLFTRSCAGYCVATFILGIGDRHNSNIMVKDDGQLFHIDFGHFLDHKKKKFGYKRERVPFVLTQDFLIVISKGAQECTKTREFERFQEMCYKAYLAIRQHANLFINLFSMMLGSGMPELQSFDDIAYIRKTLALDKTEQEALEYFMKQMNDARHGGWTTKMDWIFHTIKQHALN
Chain of PI3Kα (p110[H1047R]/p85) kinase (P27986 whole entry partner): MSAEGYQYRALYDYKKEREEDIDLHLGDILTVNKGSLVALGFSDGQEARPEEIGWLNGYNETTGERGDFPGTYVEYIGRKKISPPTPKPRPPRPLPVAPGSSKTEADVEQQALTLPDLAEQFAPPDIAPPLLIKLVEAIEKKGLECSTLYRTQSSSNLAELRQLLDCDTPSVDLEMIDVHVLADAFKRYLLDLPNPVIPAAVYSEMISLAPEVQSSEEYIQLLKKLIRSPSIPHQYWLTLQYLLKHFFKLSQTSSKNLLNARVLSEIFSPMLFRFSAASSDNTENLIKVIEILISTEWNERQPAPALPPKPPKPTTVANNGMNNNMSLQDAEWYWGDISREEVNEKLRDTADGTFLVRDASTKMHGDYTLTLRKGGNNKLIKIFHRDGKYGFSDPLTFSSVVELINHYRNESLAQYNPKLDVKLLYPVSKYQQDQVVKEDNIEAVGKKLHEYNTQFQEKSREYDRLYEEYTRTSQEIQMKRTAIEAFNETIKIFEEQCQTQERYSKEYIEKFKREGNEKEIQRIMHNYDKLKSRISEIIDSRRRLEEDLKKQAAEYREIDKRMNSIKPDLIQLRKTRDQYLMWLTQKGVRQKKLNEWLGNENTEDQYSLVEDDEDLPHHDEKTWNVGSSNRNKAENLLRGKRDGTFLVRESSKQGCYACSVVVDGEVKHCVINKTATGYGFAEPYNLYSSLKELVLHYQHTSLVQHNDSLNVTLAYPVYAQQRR

| IC50 [1] | selectivity: WT/H1047R ([1]; ADP-Glo Assay IC50 ratio) | IC50 [2] | SMILES | Selectivity: SK-BR-3/T-47D (cell proliferation) ([2]; cell proliferation IC50 ratio) |
| --- | --- | --- | --- | --- |
| 910 nM | 79.1 | 993 nM | Cc1cc(C(C)Nc2ccccc2C(=O)O)c2cc(-c3ccc(F)cc3)n(C3CCOCC3)c(=O)c2c1 (stereo not drawn) [Example 96, 2-((1-(3-(4-fluorophenyl)-7-methyl-1-oxo-2-(tetrahydro-2H-pyran-4-yl)-1,2-dihydroisoquinolin-5-yl)ethyl)amino)benzoic acid] | >10 |
| > 100000 nM | – | > 10000 nM | Cc1cc(C(C)Nc2ccncc2C(=O)O)c2cc(-c3ccc(F)cc3)n(C)c(=O)c2c1 (stereo not drawn) [Example 97, 4-((1-(3-(4-fluorophenyl)-2,7-dimethyl-1-oxo-1,2-dihydroisoquinolin-5-yl)ethyl)amino)nicotinic acid] | – |
